Where two headings read alike, the source gives them in different places.
Assays:
[1] = cited from earlier work; for hygroscopicity of crystalline form: as described in EP 0,298,650
[2] = test system: gram-positive and some cases of gram-negative bacteria; details: against gram-positive and some cases of gram-negative bacteria; Kirst, Sides 1989; cited from earlier work
[3] = Hygroscopicity: water uptake under an atmosphere over 75% relative humidity; assay type: physicochemical; details: for water content: sample containing 3% water at start, atmosphere over 75% relative humidity
Description: 4. Hygroscopicity. Two different samples of non-crystalline azithromycin containing 3% water were kept under an atmosphere over 75% relative humidity. After 8 hours, water content in the first sample was 5.3%, while the second one contained 9.9% water after 72 hours.

CC[C@H]1OC(=O)[C@H](C)[C@@H](O[C@H]2C[C@@](C)(OC)[C@@H](O)[C@H](C)O2)[C@H](C)[C@@H](O[C@@H]2O[C@H](C)C[C@H](N(C)C)[C@H]2O)[C@](C)(O)C[C@@H](C)CN(C)[C@H](C)[C@@H](O)[C@]1(C)O [azithromycin dihydrate, 9-deoxo-9a-aza-9a-methyl-9a-homoerythromycin A dihydrate]
hygroscopicity of crystalline form ([1]; dihydrate): non-hygroscopic | percentile water content (kept constant) ([1]; theoretical value 4.6%): 4.5-5%

CC[C@H]1OC(=O)[C@H](C)[C@@H](O[C@H]2C[C@@](C)(OC)[C@@H](O)[C@H](C)O2)[C@H](C)[C@@H](O[C@@H]2O[C@H](C)C[C@H](N(C)C)[C@H]2O)[C@](C)(O)C[C@@H](C)CN(C)[C@H](C)[C@@H](O)[C@]1(C)O [azithromycin monohydrate]
hygroscopicity of crystalline form [1]: hygroscopic

CC[C@H]1OC(=O)[C@H](C)[C@@H](O[C@H]2C[C@@](C)(OC)[C@@H](O)[C@H](C)O2)[C@H](C)[C@@H](O[C@@H]2O[C@H](C)C[C@H](N(C)C)[C@H]2O)[C@](C)(O)C[C@@H](C)CN(C)[C@H](C)[C@@H](O)[C@]1(C)O [Azithromycin, 9-deoxo-9a-aza-9a-methyl-9a-homoerythromycin A]
antimicrobial activity [2]: excellent antimicrobial activity

CC[C@H]1OC(=O)[C@H](C)[C@@H](O[C@H]2C[C@@](C)(OC)[C@@H](O)[C@H](C)O2)[C@H](C)[C@@H](O[C@@H]2O[C@H](C)C[C@H](N(C)C)[C@H]2O)[C@](C)(O)C[C@@H](C)CN(C)[C@H](C)[C@@H](O)[C@]1(C)O [non-crystalline azithromycin, non-crystalline 9-deoxo-9a-aza-9a-methyl-9a-homoerythromycin A]
Hygroscopicity ([3]; conclusion from water uptake over 75% relative humidity): moderately hygroscopic | water content ([3]; after 8 hours (first sample)): 5.3% | water content ([3]; after 72 hours (second sample)): 9.9%
